In publication PMC6689897, “Drugging an undruggable pocket on KRAS” (Proceedings of the National Academy of Sciences of the …, 2019) one finds Kd data, which are given here for 5 molecules.

A word on the Kd: it is the equilibrium constant for the complex coming apart.

GCP-KRASG12D, sequence (P01116 1-169 isoform P01116-2 G12D): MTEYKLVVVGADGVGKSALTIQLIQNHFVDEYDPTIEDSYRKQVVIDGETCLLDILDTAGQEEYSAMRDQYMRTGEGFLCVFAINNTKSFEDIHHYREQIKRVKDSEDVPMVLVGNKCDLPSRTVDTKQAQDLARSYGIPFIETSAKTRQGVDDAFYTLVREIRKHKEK

For the test, the target named is GCP-KRASG12D (Homo sapiens, UniProt P01116, G12D). The test is described as follows: HSQC NMR KD of fragment hits. Type of test: binding. The conditions noted are these: fragment screen hits, active form of KRAS. The source says:
Next, we attempted to identify compounds that bind to GTP-KRAS via fragment-based screening ([21]–[23]). A library of 1,800 fragments was screened using both saturation transfer difference NMR ([24], [25]) and microscale thermophoresis ([26]) using KRAS^G12V-phosphomethylphosphonic acid guanylate ester (GCP-KRAS^G12V), from which 16 fragments were found and subsequently validated (hit rate 0.9%) by the observation of cross-peak shifts in the 2D ^1H/^15N heteronuclear single-quantum correlation (HSQC) NMR spectra of GCP-KRAS^G12D. We also screened a library of 13,800 compounds using uniformly ^15N-labeled GNP-KRAS by HSQC NMR experiments. Representatives of some of the fragments which bound the active form of KRAS from the 2 screens are depicted in Fig. 1A. […]
98 Measurement of dissociation constants KD for the compounds synthesized. NMR
99 was initially the only method that could provide K Ds for the weakly binding molecules to
100 support compound optimization. 1H/15N SoFast HMQC experiments(3) were recorded in
101 3mm NMR tubes (170µL filling) at a protein concentration of 70-100µM. Spectra were
102 recorded on a Avance III 700MHz spectrometer equipped with a cryogenically cooled
103 5mm TCI probe and 48 scans, 128 f1 increments and 2k data points in f2. Total
104 acquisition time was 22 minutes. 4 – 6 titration points were performed w ith individual
105 samples for each titration point made from 50mM DMSO -d6 stock solutions. Total
106 DMSO-d6 concentration was kept constant by backfilling every sample to a total of 4%
107 DMSO. KDs were calculated from the differences in chemical shift induced by t he small
108 molecules upon interacting with the protein. Average chemical shifts from the 1H and 15N
109 dimension were calculated according to the following equation:
110 ∆δobs = √[δH2 + (α ∙δN)2] with α set to 0.14
111 The Δδobs values at the respective ligand concentrations and the total concentration
112 of protein allow a fit to the KD value of the ligand as long as it is binding under fast
113 exchange conditions as was the case for most of the compounds tested.(4) Usually Δδobs
115 following equation was used to determine the individual KDs: […]
121 HEPES, 150 mM NaCl, 3% DMSO, pH 7.5. All measurements were carried out at 25°C.
122 Titrations were performed in inverse mode. The cell was loaded with compound solutions
123 in the range of 10 to 100 µM. All injections were performed using an initial injection of
124 0.5 μL followed by 19 injections of 2 μL of protein in the range of 130-500 µM. The data
125 were analyzed with the MicroCal PEAQ-ITC analysis software package. The first data
On to `Nc1ccc2nc(Cc3c[nH]c4ccccc34)[nH]c2c1` [Compound 7], for which binding was put at a Kd of 1300 µM.

With `Clc1ccc2[nH]c3c(c2c1)CNCC3` [Compound 2], the Kd is over 2000 µM.

Molecule `Nc1nc2ccccc2n1Cc1ccccc1` [Compound 4] gave a Kd of over 2000 µM.

In turn, `c1ccc2c(CN3CCOCC3)c[nH]c2c1` [Compound 6] registered a Kd of over 5000 µM.

With `O=C(c1c[nH]c2ccccc12)N1CCNCC1` [Compound 3], the Kd is over 2000 µM.
